Test results: the supplement of paper PMC13380429

Assays:
Details in all cases: 72 h
[1] = system: U2OS; test: relative viability EC50 (midpoint between 100% and the lowest measured viability); higher = less toxic
[2] = system: Calu-3; test: as above
[3] = system: Caco-2; test: as above
[4] = system: HepG2; test: as above
[5] = system: Vero E6; test: as above
[6] = system: U2OS; test: cell viability relative to DMSO; higher = less toxic
[7] = system: Calu-3; test: as above
[8] = system: Caco-2; test: as above
[9] = system: HepG2; test: as above
[10] = system: Vero E6; test: as above
[11] = system: U2OS; test: drug sensitivity score (DSS) for viability; higher = more toxic; extreme values may be limits of the assay
[12] = system: Calu-3; test: as above
[13] = system: Caco-2; test: as above
[14] = system: HepG2; test: as above
[15] = system: Vero E6; test: as above

Compound	relative viability EC50 [1]	relative viability EC50 [2]	relative viability EC50 [3]	relative viability EC50 [4]	relative viability EC50 [5]	cell viability ([6]; 1 nM)	cell viability ([6]; 10 nM)	cell viability ([6]; 100 nM)	cell viability ([6]; 1000 nM)	cell viability ([6]; 10000 nM)	cell viability ([7]; 1 nM)	cell viability ([7]; 10 nM)	cell viability ([7]; 100 nM)	cell viability ([7]; 1000 nM)	cell viability ([7]; 10000 nM)	cell viability ([8]; 1 nM)	cell viability ([8]; 10 nM)	cell viability ([8]; 100 nM)	cell viability ([8]; 1000 nM)	cell viability ([8]; 10000 nM)	cell viability ([9]; 1 nM)	cell viability ([9]; 10 nM)	cell viability ([9]; 100 nM)	cell viability ([9]; 1000 nM)	cell viability ([9]; 10000 nM)	cell viability ([10]; 1 nM)	cell viability ([10]; 10 nM)	cell viability ([10]; 100 nM)	cell viability ([10]; 1000 nM)	cell viability ([10]; 10000 nM)	drug sensitivity score [11]	drug sensitivity score [12]	drug sensitivity score [13]	drug sensitivity score [14]	drug sensitivity score [15]
COc1ccc(S(=O)(=O)Nc2nc(-c3cccc([N+](=O)[O-])c3)cs2)cc1OC [Ro-61-8048]	> 10 µM	> 10 µM	> 10 µM	> 10 µM	> 10 µM	98.6%	93.5%	99.4%	100%	106%	107%	89.5%	103%	97.9%	124%	133%	90.8%	110%	124%	95.8%	107%	86.1%	101%	102%	106%	101%	97.2%	85.1%	102%	97.9%	0	0	0	0	0
Fc1ccc(Cl)cc1-c1nc(Nc2ccncc2)c2nccnc2n1 [SD-208]	> 10 µM	> 10 µM	> 10 µM	> 10 µM	> 10 µM	103%	101%	96.5%	90.1%	91.2%	107%	94.9%	111%	105%	103%	108%	102%	104%	93.4%	93.2%	107%	107%	103%	95.6%	98.2%	102%	103%	106%	96.5%	86.2%	0	0	0	0	0.4
C[C@@H](O)[C@H]1C(=O)N2C(C(=O)O)=C(SCCNC=N)C[C@H]12 [imipenem]	> 10 µM	> 10 µM	> 10 µM	> 10 µM	> 10 µM	99.1%	98.2%	102%	97.4%	97.2%	88%	87.6%	107%	86.3%	93.4%	97.2%	98.4%	98.2%	92.6%	106%	98.7%	98.5%	96.2%	100%	107%	97.9%	102%	89.2%	100%	110%	0	0	0	0	0
C[C@@H](O)[C@H]1C(=O)N2C(C(=O)O)=C([C@H]3CCCO3)S[C@H]12 [faropenem]	> 10 µM	> 10 µM	> 10 µM	> 10 µM	> 10 µM	101%	101%	94.6%	96.6%	98.8%	106%	96.5%	99.6%	98%	105%	95%	91%	101%	100%	95%	103%	99.4%	104%	103%	98.7%	97.2%	99.5%	102%	96.8%	97.1%	0	0	0	0	0
Cc1[nH]c(/C=C2\C(=O)Nc3ccccc32)c(C)c1CCC(=O)O [orantinib]	> 10 µM	> 10 µM	> 10 µM	> 10 µM	> 10 µM	98.1%	94.3%	101%	99.1%	98.4%	98.8%	104%	107%	106%	99.2%	101%	96.9%	102%	104%	97.5%	98.3%	103%	106%	98.7%	100%	107%	103%	103%	96.2%	98.1%	0	0	0	0	0
O=C1c2ccccc2C(=O)C1c1ccc(Br)cc1 [bromindione]	> 10 µM	> 10 µM	> 10 µM	> 10 µM	> 10 µM	104%	99.7%	102%	96.5%	102%	107%	93.8%	103%	95.6%	106%	105%	70.7%	95.6%	80.8%	96.3%	103%	103%	107%	108%	99.5%	102%	103%	103%	104%	99.4%	0	0	0	0	0
Oc1ccc(-c2nc(-c3ccc(F)cc3)c(-c3ccncc3)[nH]2)cc1	> 10 µM	> 10 µM	> 10 µM	> 10 µM	> 10 µM	96.6%	101%	94.8%	98.1%	89.8%	87.3%	106%	104%	118%	91.2%	88.1%	104%	100%	95%	91.1%	101%	103%	102%	94%	83.5%	97.7%	100%	91.1%	93.4%	111%	0	0	0	0.9	0
Cc1c(CN(C)C(=O)/C=C/c2cnc3c(c2)CCC(=O)N3)oc2ccccc12 [AFN-1252]	> 10 µM	> 10 µM	> 10 µM	> 10 µM	> 10 µM	97.9%	101%	98.5%	101%	102%	103%	98.5%	102%	108%	98.1%	95%	93.1%	99%	101%	97.1%	110%	92.6%	106%	90.2%	110%	94.2%	87.9%	93.6%	91.3%	97.7%	0	0	0	0	0
COc1ccc(COc2ccc(Cc3cnc(N)nc3N)cc2OC)cc1 [GW-2580]	> 10 µM	> 10 µM	> 10 µM	> 10 µM	> 10 µM	99.2%	99.3%	94.3%	103%	92.2%	110%	102%	97.2%	102%	99.7%	98.2%	97.6%	95.7%	102%	91.2%	113%	108%	108%	99.5%	108%	95.3%	97.9%	100%	98.3%	96%	0	0	0	0	0
CN(C)[C@@H](CCOc1cccc2ccccc12)c1ccccc1 [dapoxetine]	> 10 µM	> 10 µM	> 10 µM	> 10 µM	> 10 µM	103%	103%	103%	98.2%	89.3%	103%	104%	105%	91.7%	81.3%	98.5%	96%	101%	102%	89.6%	94.1%	104%	97.1%	95.7%	89%	97.5%	101%	98.7%	98.8%	88.6%	0	1.3	0	0	0.1
COc1cccc2c1C(=O)c1c(O)c3c(c(O)c1C2=O)C[C@@](O)(C(=O)CO)C[C@@H]3O[C@H]1C[C@H](N2CCO[C@H](OC)C2)[C@H](O)[C@H](C)O1 [nemorubicin]	0.0025 µM	0.0012 µM	0.002 µM	0.0011 µM	0.0016 µM	91.8%	1.3%	0.9%	0.3%	1.3%	69.2%	21.2%	35.1%	31.5%	30%	88.8%	24.6%	30.4%	32.6%	24.5%	55.4%	0.1%	6.3%	3%	1.5%	72.6%	2.4%	2.8%	0.8%	2.7%	44.1	38.4	35.1	48	46.1
